Laboratory results: patent US20170252442A1, “PHOTOHEXER COMPOUNDS AND PHARMACEUTICAL COMPOSITION AND USE THEREOF” (RAINBOW PHARMATECH LLC, priority 2014, published 2017)

Tests used:
Caco2 cells = assay: MTT assay, photodynamic therapy on Caco2 cells; assay type: cell-based, human
Source text: (§1) The cells in logarithmic growth phase were collected and inoculated on 24-well culture plates. When reaching 70%-80% confluence, cells were divided randomly into the following groups: control (the parallel control group without photosensitizer and irradiation), irradiation (irradiation treatment alone without photosensitizer); (photosensitizer treatment alone without irradiation), photodynamic treatment (treatment by photosensitizer in combination with irradiation). For the photosensitizer alone treatment group and photodynamic treatment group, an appropriate amount of Photohexer-1 (P-1) or Photohexer-2 (P-2) was respectively added away from light to give a final concentration of 0.8, 1.6, 3.2, 6.4 μM. Each group set 3 replicates. Cells were incubated with the active agent, different treatments were carried out according to the grouping. […] After treatment and digestion of each group of cells, it was inoculated into a 96-well plate at 100 μL/well, and four wells were set for each treatment. MTT assay was performed after 24 h from inoculation: 20 μL MTT solution was added to each well under the condition away from light, and the culture was continued for 4 hours. 150 μL DMSO was added to each well after discarding the supernatant. After 15 min of dissolution, the absorbance value (OD value) was measured using a microplate reader and the relative survival rate of cells was calculated according to the following formula: […]

CT26 cells = assay: MTT assay, photodynamic therapy on CT26 cells; assay type: cell-based, murine
Source text: as §1

Eca-109 cells = assay: MTT assay, photodynamic therapy on Eca-109 cells; assay type: cell-based, human
Source text: as §1

the cell lines = assay: MTT assay, summary over the cell lines (photosensitizer alone); assay type: cell-based; details: without light irradiation; selected drug concentration range (0.8-6.4 μM)
Source text: The cells in logarithmic growth phase were collected and inoculated on 24-well culture plates. When reaching 70%-80% confluence, cells were divided randomly into the following groups: control (the parallel control group without photosensitizer and irradiation), irradiation (irradiation treatment alone without photosensitizer); (photosensitizer treatment alone without irradiation), photodynamic treatment (treatment by photosensitizer in combination with irradiation). For the photosensitizer alone treatment group and photodynamic treatment group, an appropriate amount of Photohexer-1 (P-1) or Photohexer-2 (P-2) was respectively added away from light to give a final concentration of 0.8, 1.6, 3.2, 6.4 μM. Each group set 3 replicates. Cells were incubated with the active agent, different treatments were carried out according to the grouping. Three different light intensities were selected for the photodynamic treatment group, which were 2.6, 5.2 and 12.4 J/cm^2, respectively. After treatment and digestion of each group of cells, it was inoculated into a 96-well plate at 100 μL/well, and four wells were set for each treatment. […] After 15 min of dissolution, the absorbance value (OD value) was measured using a microplate reader and the relative survival rate of cells was calculated according to the following formula: […]

MCF-7 cells = assay: MTT assay, photodynamic therapy on MCF-7 cells; assay type: cell-based, human
Source text: as §1

MDA-MB-231 cells = assay: MTT assay, photodynamic therapy on MDA-MB-231 cells; assay type: cell-based, human
Source text: as §1

[1] = Storage stability determination; assay type: physicochemical; details: 3 months of storage in dark at 2-4
Protocol: The storage stability of Photohexer-1 and Photohexer-2 was determined by conventional methods in the art.

4T1 transplanted tumors = assay: Tumor-inhibition effect of P1 and P2-PDT on 4T1 xenografted mice; assay type: in vivo, Balb/c mice
Protocol: Experimental groups: blank control (2 mice), P-1 alone treatment (4 mg/kg, 8 mice), P-2 alone treatment (2 mg/kg, 8 mice), P-1 treatment (2 mg/kg, 4 mg/kg, 8 mice/group) combined with light irradiations, P-2 treatment (1 mg/kg, 2 mg/kg, 4 mg/kg, 8 mice/group) combined with light irradiations, 66 Balb/c mice in total.

[2] = 0.8 μM alone treatment, without irradiation
[3] = 0.8 μM combined with 2.6 J/cm^2 light irradiation
[4] = 0.8 μM combined with 5.2 J/cm^2 light irradiation
[5] = 0.8 μM combined with 10.4 J/cm^2 light irradiation
[6] = 1.6 μM alone treatment, without irradiation
[7] = 1.6 μM combined with 2.6 J/cm^2 light irradiation
[8] = 1.6 μM combined with 5.2 J/cm^2 light irradiation
[9] = 1.6 μM combined with 10.4 J/cm^2 light irradiation
[10] = 3.2 μM alone treatment, without irradiation
[11] = 3.2 μM combined with 2.6 J/cm^2 light irradiation
[12] = 3.2 μM combined with 5.2 J/cm^2 light irradiation
[13] = 3.2 μM combined with 10.4 J/cm^2 light irradiation
[14] = 6.4 μM alone treatment, without irradiation
[15] = 6.4 μM combined with 2.6 J/cm^2 light irradiation
[16] = 6.4 μM combined with 5.2 J/cm^2 light irradiation
[17] = 6.4 μM combined with 10.4 J/cm^2 light irradiation

## C=CC1=C(C)c2cc3[nH]c(cc4nc(cc5[nH]c(cc1n2)c(C)c5CCC(=O)[O-])C(CCC(=O)[O-])=C4C)c(C)c3C(C)OCCCCCC.[Na+].[Na+] (stereo not shown) [Photohexer P-1, 2-(1-hexyloxyethyl)-6,7-bis(propionatesodium)-1,3,5,8-tetramethyl-4-vinylporphyrin]
Caco2 cells; [2]
  Cell survival rate: 99.34 ± 3.40%
Caco2 cells; [3]
  Cell survival rate: 95.31 ± 3.86%
Caco2 cells; [4]
  Cell survival rate: 93.10 ± 3.96%
Caco2 cells; [5]
  Cell survival rate: 88.18 ± 4.24%
Caco2 cells; [6]
  Cell survival rate: 97.36 ± 2.42%
Caco2 cells; [7]
  Cell survival rate: 91.33 ± 2.69%
Caco2 cells; [8]
  Cell survival rate: 89.01 ± 2.88%
Caco2 cells; [9]
  Cell survival rate: 87.63 ± 3.49%
Caco2 cells; [10]
  Cell survival rate: 95.34 ± 1.67%
Caco2 cells; [11]
  Cell survival rate: 89.49 ± 2.15%
Caco2 cells; [12]
  Cell survival rate: 87.46 ± 1.67%
Caco2 cells; [13]
  Cell survival rate: 84.32 ± 2.76%
Caco2 cells; [14]
  Cell survival rate: 83.33 ± 1.24%
Caco2 cells; [15]
  Cell survival rate: 81.65 ± 1.07%
Caco2 cells; [16]
  Cell survival rate: 74.26 ± 1.14%
Caco2 cells; [17]
  Cell survival rate: 66.34 ± 1.17%
CT26 cells
  toxic side effects compared between P-1 and P-2: higher than those of P-2
CT26 cells; [2]
  Cell survival rate: 93.23 ± 3.43%
CT26 cells; [3]
  Cell survival rate: 91.63 ± 3.46%
CT26 cells; [4]
  Cell survival rate: 82.12 ± 4.98%
CT26 cells; [5]
  Cell survival rate: 82.39 ± 4.63%
CT26 cells; [6]
  Cell survival rate: 87.15 ± 2.45%
CT26 cells; [7]
  Cell survival rate: 62.86 ± 2.29%
CT26 cells; [8]
  Cell survival rate: 55.88 ± 2.95%
CT26 cells; [9]
  Cell survival rate: 44.00 ± 3.29%
CT26 cells; [10]
  Cell survival rate: 56.13 ± 1.69%
CT26 cells; [11]
  Cell survival rate: 49.48 ± 2.06%
CT26 cells; [12]
  Cell survival rate: 44.86 ± 1.57%
CT26 cells; [13]
  Cell survival rate: 41.00 ± 2.66%
CT26 cells; [14]
  Cell survival rate: 44.05 ± 1.26%
CT26 cells; [15]
  Cell survival rate: 36.03 ± 1.17%
CT26 cells; [16]
  Cell survival rate: 30.01 ± 1.07%
CT26 cells; [17]
  Cell survival rate: 28.55 ± 1.47%
Eca-109 cells
  photosensitive toxicity compared between P-1 and P-2: significantly stronger toxicity than that of P-2
Eca-109 cells; [2]
  Cell survival rate: 99.32 ± 3.43%
Eca-109 cells; [3]
  Cell survival rate: 84.64 ± 3.79%
Eca-109 cells; [4]
  Cell survival rate: 74.34 ± 4.23%
Eca-109 cells; [5]
  Cell survival rate: 60.09 ± 4.54%
Eca-109 cells; [6]
  Cell survival rate: 97.28 ± 2.48%
Eca-109 cells; [7]
  Cell survival rate: 64.63 ± 2.39%
Eca-109 cells; [8]
  Cell survival rate: 66.40 ± 3.12%
Eca-109 cells; [9]
  Cell survival rate: 41.05 ± 3.47%
Eca-109 cells; [10]
  Cell survival rate: 92.81 ± 1.37%
Eca-109 cells; [11]
  Cell survival rate: 44.02 ± 2.05%
Eca-109 cells; [12]
  Cell survival rate: 41.43 ± 1.27%
Eca-109 cells; [13]
  Cell survival rate: 36.89 ± 2.26%
Eca-109 cells; [14]
  Cell survival rate: 80.68 ± 1.04%
Eca-109 cells; [15]
  Cell survival rate: 42.24 ± 1.01%
Eca-109 cells; [16]
  Cell survival rate: 37.97 ± 1.04%
Eca-109 cells; [17]
  Cell survival rate: 35.04 ± 1.34%
The cell lines
  cytotoxicity of alone treatment: did not produce significant cytotoxicity
MCF-7 cells
  sensitivity compared between P-1 and P-2: more sensitive than P-2
MCF-7 cells; [2]
  Cell survival rate: 102.94 ± 3.04%
MCF-7 cells; [3]
  Cell survival rate: 78.02 ± 4.55%
MCF-7 cells; [4]
  Cell survival rate: 68.03 ± 3.97%
MCF-7 cells; [5]
  Cell survival rate: 63.99 ± 4.42%
MCF-7 cells; [6]
  Cell survival rate: 82.48 ± 2.24%
MCF-7 cells; [7]
  Cell survival rate: 65.32 ± 2.43%
MCF-7 cells; [8]
  Cell survival rate: 47.92 ± 2.82%
MCF-7 cells; [9]
  Cell survival rate: 49.71 ± 3.94%
MCF-7 cells; [10]
  Cell survival rate: 71.23 ± 1.76%
MCF-7 cells; [11]
  Cell survival rate: 54.13 ± 2.04%
MCF-7 cells; [12]
  Cell survival rate: 45.96 ± 1.76%
MCF-7 cells; [13]
  Cell survival rate: 46.98 ± 2.67%
MCF-7 cells; [14]
  Cell survival rate: 60.81 ± 1.04%
MCF-7 cells; [15]
  Cell survival rate: 50.88 ± 1.02%
MCF-7 cells; [16]
  Cell survival rate: 41.69 ± 1.02%
MCF-7 cells; [17]
  Cell survival rate: 44.28 ± 1.07%
MDA-MB-231 cells; [2]
  Cell survival rate: 97.82 ± 3.12%
MDA-MB-231 cells; [3]
  Cell survival rate: 93.29 ± 3.66%
MDA-MB-231 cells; [4]
  Cell survival rate: 90.67 ± 4.08%
MDA-MB-231 cells; [5]
  Cell survival rate: 88.23 ± 4.09%
MDA-MB-231 cells; [6]
  Cell survival rate: 91.07 ± 2.02%
MDA-MB-231 cells; [7]
  Cell survival rate: 81.63 ± 2.87%
MDA-MB-231 cells; [8]
  Cell survival rate: 76.33 ± 2.91%
MDA-MB-231 cells; [9]
  Cell survival rate: 71.13 ± 3.79%
MDA-MB-231 cells; [10]
  Cell survival rate: 75.52 ± 1.07%
MDA-MB-231 cells; [11]
  Cell survival rate: 70.24 ± 2.03%
MDA-MB-231 cells; [12]
  Cell survival rate: 68.08 ± 1.43%
MDA-MB-231 cells; [13]
  Cell survival rate: 61.29 ± 2.27%
MDA-MB-231 cells; [14]
  Cell survival rate: 70.10 ± 0.99%
MDA-MB-231 cells; [15]
  Cell survival rate: 62.22 ± 1.04%
MDA-MB-231 cells; [16]
  Cell survival rate: 64.88 ± 1.07%
MDA-MB-231 cells; [17]
  Cell survival rate: 56.27 ± 1.06%
[1]
  storage stability (content change by HPLC test): no content change
4T1 transplanted tumors; 4 mg/kg alone, without irradiation, 4T1 tumor-bearing mice
  toxic effects of photosensitizer alone: did not show significant toxic effects
4T1 transplanted tumors; 4 mg/kg combined with light irradiation (50 J/cm^2), day 22 after treatment, 4T1 tumor-bearing mice
  tumor inhibition rate: 25.6%
4T1 transplanted tumors; combined with 50 J/cm^2 irradiation
  photosensitizer activity on growth of 4T1 transplanted tumors: obvious dose-dependent activity
